Data as given in patent US20230115176A1 (Ra Pharmaceuticals, Inc., priority 2019, published 2023).
≈ marks a conversion by molar mass, not a printed value.

Columns and labels:
[1] = Permeability assay, unidirectional transport, Papp (Example 30, Table 34); format: in vitro ADME, canine; conditions: dog, pH 7.4; MDCK-WT cell monolayers, A-to-B, 3 μM test compound, 37° C., duplicate determinations
Protocol: (§1) Permeability assays were carried out to provide a preliminary indication of suitability for oral dosing and compound permeability across the blood brain barrier. Unidirectional and bidirectional compound transport across Madin Darby canine kidney (MDCK) cell monolayers was assessed. For unidirectional transport assessment, transport across MDCK wild type (MDCK-WT) cell monolayers was assessed. For bidirectional transport, transport across MDCK-MDR1 cell monolayers was assessed. MDCK-MDR1 cells express the MDR1 gene encoding the P-glycoprotein (P-gp) efflux protein.
(§2) MDCK-WT and MDCK-MDR1 cells were plated onto permeable polycarbonate supports in 12-well Costar transwell plates and allowed to grow and differentiate for 3 days. After 3 days in culture, the culture medium (DMEM supplemented with 10% FBS) was removed from both sides of the transwell inserts and cells were rinsed with warm HBSS. After the rinse step, the chambers were filled with warm transport buffer (HBSS containing 10 mM HEPES, 0.25% BSA, pH 7.4) and the plates were pre-incubated at 37° C. for 30 minutes prior to TEER (Trans Epithelial Electric Resistance) measurements.
(§3) The buffer in the donor chamber (apical side for A-to-B assay, basolateral side for B-to-A assay) was removed and replaced with the working solution (3 μM test compound and 10 μM for control compounds in transport buffer). The plates were then placed at 37° C. under light agitation. At designated time points (30, 60 and 90 min), an aliquot of transport buffer from the receiver chamber was removed and replenished with fresh transport buffer. Samples were quenched with ice-cold ACN containing internal standard and then centrifuged to pellet protein. Resulting supernatants were further diluted with 50/50 ACN/H2O (Atenolol diluted in just water) and submitted for LC-MS/MS analysis. Apparent permeability (Pap) values were calculated from duplicate determinations. Atenolol and propranolol were tested as low and […] permeability references.
Papp values indicate extent of compound permeation across monolayers.

[2] = tested on: P-glycoprotein (P-gp, MDR1); experiment: Permeability assay, bidirectional transport, efflux ratio (Example 30, Table 34); format: in vitro ADME, canine; conditions: dog, MDCK-MDR1, pH 7.4; read-out: MDCK-MDR efflux ratio
Protocol: as §1, §2, §3
Efflux ratios were calculated for bidirectional transport across MDCK-MDR1 cell monolayers as an indication of compound efflux by P-gp. The efflux ratio is calculated using the ratio of mean Papp values for B to A transport to mean Papp values for A to B transport [Papp(BA)/Papp(AB)].

[3] = Kinetic solubility in PBS pH 7.4, HPLC-UV (Example 21, Table 27); format: physicochemical; conditions: phosphate buffered saline, aqueous buffer, kinetic from dmso stock, 0.5 M PBS, shaken minimum 24 h at approximately 25° C., HPLC-UV 270 nm
Summary of the method: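 10 mM DMSO stock diluted into 0.05 M PBS pH 7.4 (5% DMSO final), in triplicate, shaken ≥24 h at ~25 °C, then filtered by centrifugation. Supernatant concentration by HPLC-UV at 270 nm against external DMSO standards (15.6–500.0 μM).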

[4] = target: human C5 complement protein (Homo sapiens, UniProt P01031); experiment: Surface plasmon resonance (SPR), immobilized human C5, 37° C. (Example 27, Table 31); format: binding; conditions: lowest value obtained where a range of concentrations was analyzed (Table 31)
Human C5 [5] = target: T1, Human C5 (Homo sapiens, UniProt P01031); experiment: Red blood cell (RBC) hemolysis assay, luminescent (Example 28, Table 32); format: cell-based; conditions: sheep EA cells, 1.5% C5-depleted human serum, 0.5 nM human C5, 1 hour at 37° C., luminescence (Table 32)
T1 construct: purchased Complement Technology
Protocol: Sheep red blood cells coated with rabbit anti-sheep erythrocyte antiserum (EA cells; Complement Technology, Tyler, Tex.) were used to assay compound inhibitory activity of the classical complement activation pathway. Briefly, the EA cells were washed once and resuspended in the same volume of GVB++ buffer (Complement Technology, Tyler, Tex.). 25 μL of EA cells were then distributed into each well of 384-well tissue culture plates using Apricot iPipette Pro (Apricot Designs; Covina, Calif.). Compounds were tested in 10 points of final concentrations ranging from 16.67 μM to 1.65 μM in a 6-fold titration series. Compounds were dispensed into 384-well plates from 6.7 mM and 3.35 μM DMSO working stocks using an HP Digital Dispenser (HP; Corvallis, Oreg.). The reactions also contained 1.5% (v/v) C5-depleted human serum (Complement Technology). Hemolysis was induced by addition of human C5 (Complement Technology) at a concentration of 0.5 nM and plates were incubated for 1 hour at 37° C. in a cell culture incubator. The extent of hemolysis was measured by ability of released hemoglobin to catalyze luminol in the presence of hydrogen peroxide. Luminescence was then measured using a plate reader. Luminescence measurements were used to prepare a dose-response curve. From the curve, the half maximal inhibitory concentration (IC50) for each compound was determined, where the IC50 represents the concentration of each compound needed to reduce red blood cell hemolysis by half.

Human C5 [6] = target: T1, Human C5; experiment: Surface plasmon resonance (SPR), compounds on immobilized human C5 (Example 2, Table 5); format: binding; conditions: lowest value where a range of compound concentrations were analyzed
purified human C5 = purified human C5 (Homo sapiens, UniProt P01031); experiment: Red blood cell hemolysis assay, optical, absorbance 412 nm (Example 3, Table 6); format: cell-based; conditions: antibody-sensitized sheep erythrocytes, 1.5% human C5 depleted sera, 0.5 nM human C5; average where replicates
Human C5 [7] = target: T1, Human C5; experiment: Hemolysis assay, luminescent, classical complement pathway (Example 4, Table 7); format: cell-based; conditions: sheep EA cells, 1.5% C5-depleted human serum, 0.5 nM human C5, luminescence readout
From the text: Numbers in parenthesis following the compound number indicate alternate enantiomers (as distinguished by retention time during chromatographical separation).

Chain of purified human C5 (P01031 19-1676): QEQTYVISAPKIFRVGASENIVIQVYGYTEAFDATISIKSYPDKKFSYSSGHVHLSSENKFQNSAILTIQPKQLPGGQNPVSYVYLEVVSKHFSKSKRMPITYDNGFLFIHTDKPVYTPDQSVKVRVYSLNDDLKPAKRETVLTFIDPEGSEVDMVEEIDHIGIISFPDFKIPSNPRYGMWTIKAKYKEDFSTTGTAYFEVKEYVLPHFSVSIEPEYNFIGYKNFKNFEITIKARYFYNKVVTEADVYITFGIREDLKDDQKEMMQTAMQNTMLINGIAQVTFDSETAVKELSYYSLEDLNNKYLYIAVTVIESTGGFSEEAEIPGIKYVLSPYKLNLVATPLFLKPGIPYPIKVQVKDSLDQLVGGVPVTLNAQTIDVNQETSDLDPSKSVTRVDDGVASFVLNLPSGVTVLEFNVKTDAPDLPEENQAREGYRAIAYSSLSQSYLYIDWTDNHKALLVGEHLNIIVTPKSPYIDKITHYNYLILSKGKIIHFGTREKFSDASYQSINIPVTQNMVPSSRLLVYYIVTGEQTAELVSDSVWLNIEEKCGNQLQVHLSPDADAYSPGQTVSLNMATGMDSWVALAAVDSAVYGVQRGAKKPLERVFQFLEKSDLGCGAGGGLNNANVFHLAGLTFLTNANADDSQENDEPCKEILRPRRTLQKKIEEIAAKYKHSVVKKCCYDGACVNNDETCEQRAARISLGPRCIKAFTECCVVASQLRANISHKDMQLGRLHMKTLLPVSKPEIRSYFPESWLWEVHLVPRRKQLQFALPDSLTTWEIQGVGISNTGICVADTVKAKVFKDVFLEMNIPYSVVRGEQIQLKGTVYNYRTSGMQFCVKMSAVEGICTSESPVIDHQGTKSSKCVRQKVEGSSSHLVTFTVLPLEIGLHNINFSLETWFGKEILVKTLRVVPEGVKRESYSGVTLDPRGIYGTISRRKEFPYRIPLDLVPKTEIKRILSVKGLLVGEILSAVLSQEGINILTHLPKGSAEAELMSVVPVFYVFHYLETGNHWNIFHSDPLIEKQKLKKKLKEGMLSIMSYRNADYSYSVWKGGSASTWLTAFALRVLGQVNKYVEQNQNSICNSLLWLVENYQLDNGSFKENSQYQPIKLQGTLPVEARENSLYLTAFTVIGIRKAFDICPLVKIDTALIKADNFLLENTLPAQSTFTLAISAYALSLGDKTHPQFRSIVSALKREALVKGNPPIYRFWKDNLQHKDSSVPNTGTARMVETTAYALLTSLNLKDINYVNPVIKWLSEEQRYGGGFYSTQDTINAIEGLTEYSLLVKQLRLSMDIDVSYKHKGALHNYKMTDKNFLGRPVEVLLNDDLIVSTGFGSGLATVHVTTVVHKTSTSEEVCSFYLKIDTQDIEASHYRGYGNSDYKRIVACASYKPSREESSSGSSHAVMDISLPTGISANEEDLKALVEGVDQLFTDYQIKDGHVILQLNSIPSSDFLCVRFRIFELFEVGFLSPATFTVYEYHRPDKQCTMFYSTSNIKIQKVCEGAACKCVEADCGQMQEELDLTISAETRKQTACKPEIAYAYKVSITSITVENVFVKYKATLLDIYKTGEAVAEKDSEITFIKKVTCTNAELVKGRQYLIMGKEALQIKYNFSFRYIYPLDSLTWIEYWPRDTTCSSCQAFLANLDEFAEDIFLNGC
T1 sequence (P01031 19-1676): as above
Chain of human C5 complement protein (P01031 19-1676): as above

SMILES | solubility kinetic [3] [µM] | Kd [4] [nM] | IC50 (Human C5 [5]) [nM] | IC50 (Human C5 [7]) [nM] | further results
CCCCCOc1cc(N2CCCN(Cc3ccnc4c3c(Cl)cn4CC(=O)N3CC4CC(C3)O4)C2=O)ccc1OC [CU0506] |  |  |  |  | Papp A→B at 3 μM [1]: 21.1 ×10⁻⁶ cm/s; efflux ratio at 3 μM [2]: 59
CCCCCOc1cc(N2CC(CO)CN(Cc3ccc(CNC(=O)c4cocn4)cc3OC)C2=O)ccc1OC (stereo not drawn) [SC0104] | < 10 | 0.89 | 1.1 |  | 
CCCCCOc1cc(N2CC[C@H](C)N(Cc3cccc4c3c(C)cn4CC(=O)N(C)C3CCN(CC)C3)C2=O)ccc1OC (stereo partly drawn) [SC0105] | 399 (≈ 247 µg/mL) | 0.08 | 1.1 |  | 
CCCCCOc1cc(N2CC[C@H](C)N(Cc3ccnc4c3c(Cl)cn4CC(=O)N3CCNC(=O)C3)C2=O)ccc1OC [SC0106] | 119 (≈ 72.7 µg/mL) | 0.08 | 1.1 |  | 
CCCCCOc1cc(N2CC[C@H](C)N(Cc3cccc4c3c(C)cn4CC(=O)N(C)C)C2=O)ccc1OC [SC0107] | 52 (≈ 27.8 µg/mL) | 0.36 | 1.1 |  | 
CCCCCOc1cc(N2CC[C@H](C)N(Cc3ccnc4c3c(Cl)cn4CC(=O)N3CCOC3)C2=O)ccc1OC [SC0113] |  | 0.02 | 1.3 |  | Papp A→B at 3 μM [1]: 17.9 ×10⁻⁶ cm/s
COc1ccc(N2CC[C@H](C)N(Cc3cccc4c3c(Cl)cn4CC(=O)N3CCOCC3)C2=O)cc1OCCCC1CC1 [SC0115] | < 10 | 0.18 | 1.4 |  | 
COc1ccc(N2CC[C@H](C)N(Cc3cccc4c3c(Cl)cn4CC(=O)N(C)C)C2=O)cc1OCCCC1CC1 [SC0116] | < 10 | 0.02 | 1.4 |  | 
COc1ccc(N2CC[C@H](C)N(Cc3ccnc4c3c(Cl)cn4CC(=O)N(C)C)C2=O)cc1OCCCC1CC1 [SC0119] | 65 (≈ 36.9 µg/mL) | 1.21 | 1.4 |  | 
CCCCCOc1cc(N2CC[C@H](C)N(Cc3ccnc4c3c(Cl)cn4CC(=O)N3CCC3)C2=O)ccc1OC [SC0122] | 81 (≈ 46 µg/mL) | 0.22 | 1.5 |  | 
CCCCCOc1cc(N2CC[C@H](C)N(Cc3cccc4c3c(Cl)cn4CC(=O)N3CCCOCC3)C2=O)ccc1OC [SC0128] | < 10 | 0.02 | 1.7 |  | 
CCCCCOc1cc(N2CC[C@H](C)N(Cc3cccc4[nH]cc(C)c34)C2=O)ccc1OC [SC0148] | < 10 | 0.92 | 2.2 |  | 
CCCCCOc1cc(N2CC[C@H](C)N(Cc3cccc4c3c(Cl)cn4CC(=O)N3CCOC(CN(C)C)C3)C2=O)ccc1OC (stereo partly drawn) [SC0154] | 315 (≈ 206 µg/mL) | 0.04 | 2.3 |  | 
CCCCCOc1cc(N2CC(C)CN(Cc3ccc(CC(=O)N4CCNC(=O)C4)cc3OC)C2=O)ccc1OC (stereo not drawn) [SC0163] | 450 (≈ 255 µg/mL) | 0.89 | 2.8 |  | 
CCCCCOc1cc(N2CC(CO)CN(Cc3ccc(CC(=O)N(C)C)cc3OC)C2=O)ccc1OC (stereo not drawn) [SC0172] | 490 (≈ 259 µg/mL) | 2.25 | 3.8 |  | 
COc1ccc(N2CC[C@H](C)N(Cc3cccc4c3ccn4CC(=O)N(C)C)C2=O)cc1OCCCC1CC1 [SC0174] | 40 (≈ 21.3 µg/mL) | 0.78 | 4.3 |  | 
CCCCCOc1cc(N2CC(CO)CN(Cc3ccc(CC(=O)N4CCNC(=O)C4)cc3OC)C2=O)ccc1OC (stereo not drawn) [SC0178] | 443 (≈ 258 µg/mL) | 1.07 | 4.8 |  | 
CCCCCOc1cc(N2CC(CO)CN(Cc3ccc(CC(=O)N4CCOCC4)cc3OC)C2=O)ccc1OC (stereo not drawn) [SC0183] | > 500 | 3.88 | 5.3 |  | 
CCCCCOc1cc(N2CC(CO)CN(Cc3ccc(CC(=O)N4CCCC4)cc3OC)C2=O)ccc1OC (stereo not drawn) [SC0184] | 411 (≈ 228 µg/mL) | 2.94 | 5.7 |  | 
COc1ccc(NC(=O)N[C@@H](CO)c2ccccc2OC)cc1OCCCC(C)C [SM0002] |  |  |  | 11.9 | Kd (Human C5 [6]): 14 nM; IC50 (purified human C5): 21.9 nM
COc1ccccc1CNC(=O)Nc1ccc(OC)c(OCCCC(C)C)c1 [SM0006] |  |  |  | 37.6 | Kd (Human C5 [6]): 18 nM; IC50 (purified human C5): 125 nM

SMILES | solubility kinetic [3] [µM] | Kd [4] [nM] | IC50 (Human C5 [5]) [nM] | IC50 (Human C5 [7]) [nM] | further results
CCCCOc1cc(NC(=O)N[C@@H](CO)c2ccccc2)ccc1OC [SM0035] |  |  |  | 328 | IC50 (purified human C5): 1180 nM
COc1ccc(NC(=O)NCc2ccccc2OC(F)F)cc1OCCCC(C)C [SM0104] |  |  |  | 558 | Kd (Human C5 [6]): 210 nM
C#CC(=O)NCc1cc(OC)c(OCCCCC)cc1NC(=O)N1CCC[C@@H]1c1ccccc1Cl [SM0201] |  |  |  | 89.5 | 
CCCCCOc1cc(NC(=O)N2CCC[C@@H]2c2ccccc2Cl)c(CNC(=O)/C=C/CN(C)C)cc1OC [SM0202] |  |  |  | 240 | 
CCCCCOc1cc(NC(=O)N2CCC[C@@H]2c2ccccc2Cl)c(CNC(=O)CCl)cc1OC [SM0203] |  |  |  | 255 | 
CCCCCOc1cc(NC(=O)N(CC(=O)O)Cc2cc(F)ccc2OC)ccc1OC [SM0204] |  |  |  | 753 | 
CCCCCOc1cc(NC(=O)N(CC(=O)NCc2cccnc2)Cc2cc(F)ccc2OC)ccc1OC [SM0205] |  |  |  | 1290 | 
CCCCCOc1cc(NC(=O)N(CC(=O)NCCN2CCCC2)Cc2cc(F)ccc2OC)ccc1OC [SM0206] |  |  |  | 2060 | 
CCCCCOc1cc(NC(=O)N(CC(=O)NCC2CC(=O)N(C)C2)Cc2cc(F)ccc2OC)ccc1OC (stereo not drawn) [SM0208] |  |  |  | 914 | 
CCCCCOc1cc(NC(=O)N(CC(=O)NC2CCN(C(C)=O)CC2)Cc2cc(F)ccc2OC)ccc1OC [SM0209] |  |  |  | 1140 | 
CCCCCOc1cc(NC(=O)N(CC(=O)N2CCOCC2)Cc2cc(F)ccc2OC)ccc1OC [SM0210] |  |  |  | 2120 | 
CCCCCOc1cc(NC(=O)N(CC(=O)N(C)C)Cc2cc(F)ccc2OC)ccc1OC [SM0211] |  |  |  | 1910 | 
CCCCCOc1cc(NC(=O)N(CC(=O)NC)Cc2cc(F)ccc2OC)ccc1OC [SM0212] |  |  |  | 867 | 
CCCCCOc1cc(NC(=O)N(CC(N)=O)Cc2cc(F)ccc2OC)ccc1OC [SM0213] |  |  |  | 903 | 
CCCCCOc1cc(NC(=O)N(CCC(=O)O)Cc2cc(F)ccc2OC)ccc1OC [SM0214] |  |  |  | 175 | 
CCCCCOc1cc(NC(=O)N(CCC(=O)NCc2ccncc2)Cc2cc(F)ccc2OC)ccc1OC [SM0215] |  |  |  | 244 | 
CCCCCOc1cc(NC(=O)N(CCC(=O)N(C)C)Cc2cc(F)ccc2OC)ccc1OC [SM0216] |  |  |  | 199 | 
CCCCCOc1cc(NC(=O)N(CCOCc2cn(C)cn2)Cc2cc(F)ccc2OC)ccc1OC [SM0217] |  |  |  | 210 | 
COc1ccc(NC(=O)N[C@H]2COC(C)(C)Oc3c(OC)cccc32)cc1OCCCC(C)C [SM0218] |  |  |  | 48.6 | 
CCCCCOc1cc(NC(=O)NCc2ccc(Br)cc2OC)ccc1OC [SM0219] |  |  |  | 239 | 
